According to article PMC5844530, “Fosmetpantotenate (RE-024), a phosphopantothenate replacement therapy for pantothenate kinase-associated neurodegeneration: Mechanism of action and efficacy in nonclinical models” (PLoS ONE, 2018):
Values joined by “and” are separate entries in the source; they are usually repeats but may differ in a detail not shown here. Identical values can stand only once.

Assay: Pharmacokinetics in whole blood, CD-1 mice
Settings: for % Parent AUCAll: CD1 mouse, metabolite AUCall/Parent AUCall x 100; for Compound 1 Whole Blood Conc.: CD-1 mice, individual animals

COC(=O)CCNC(=O)[C@@H]1OP(=O)(N[C@@H](C)C(=O)OC)OCC1(C)C (some centres unmarked) [Compound 1]
% Parent AUCAll (100 mg/kg PO): 129% | % Parent AUCAll (300 mg/kg PO): 307% | % Parent AUCAll (700 mg/kg PO): 257% | Compound 1 Whole Blood Conc. (100 mg/kg RE-024-02 by PO, 0.033 hr, LLOQ 0.6 ng/mL, 100 mg/kg): 4.6 ng/mL and 4 ng/mL and 74.4 ng/mL and 3.2 ng/mL | Compound 1 Whole Blood Conc. (100 mg/kg RE-024-02 by PO, 0.033 hr, LLOQ 1.6 nM, 100 mg/kg): 12.2 nM and 10.6 nM and 195.6 nM and 8.4 nM | Compound 1 Whole Blood Conc. (100 mg/kg RE-024-02 by PO, 0.083 hr, LLOQ 0.6 ng/mL, 100 mg/kg): BQL and 1 ng/mL | Compound 1 Whole Blood Conc. (100 mg/kg RE-024-02 by PO, 0.083 hr, LLOQ 1.6 nM, 100 mg/kg): BQL and 2.7 nM | Compound 1 Whole Blood Conc. (100 mg/kg RE-024-02 by PO, 0.167 hr, LLOQ 0.6 ng/mL, 100 mg/kg): 4.3 ng/mL and BQL and 10.8 ng/mL | Compound 1 Whole Blood Conc. (100 mg/kg RE-024-02 by PO, 0.167 hr, LLOQ 1.6 nM, 100 mg/kg): 11.4 nM and BQL and 28.4 nM | Compound 1 Whole Blood Conc. (100 mg/kg RE-024-02 by PO, 0.333 hr, LLOQ 0.6 ng/mL, 100 mg/kg): BQL | Compound 1 Whole Blood Conc. (100 mg/kg RE-024-02 by PO, 0.333 hr, LLOQ 1.6 nM, 100 mg/kg): BQL | Compound 1 Whole Blood Conc. (100 mg/kg RE-024-02 by PO, 0.5 hr, LLOQ 0.6 ng/mL): BQL | Compound 1 Whole Blood Conc. (100 mg/kg RE-024-02 by PO, 0.5 hr, LLOQ 1.6 nM): BQL | Compound 1 Whole Blood Conc. (100 mg/kg RE-024-02 by PO, 1 hr, LLOQ 0.6 ng/mL): BQL | Compound 1 Whole Blood Conc. (100 mg/kg RE-024-02 by PO, 1 hr, LLOQ 1.6 nM): BQL | Compound 1 Whole Blood Conc. (100 mg/kg RE-024-02 by PO, 2 hr, LLOQ 0.6 ng/mL): BQL | Compound 1 Whole Blood Conc. (100 mg/kg RE-024-02 by PO, 2 hr, LLOQ 1.6 nM): BQL | Compound 1 Whole Blood Conc. (100 mg/kg RE-024-02 by PO, 4 hr, LLOQ 0.6 ng/mL): BQL | Compound 1 Whole Blood Conc. (100 mg/kg RE-024-02 by PO, 4 hr, LLOQ 1.6 nM): BQL | Compound 1 Whole Blood Conc. (100 mg/kg RE-024-02 by PO, 8 hr, LLOQ 0.6 ng/mL): BQL | Compound 1 Whole Blood Conc. (100 mg/kg RE-024-02 by PO, 8 hr, LLOQ 1.6 nM): BQL | Compound 1 Whole Blood Conc. (300 mg/kg RE-024-02 by PO, 0.033 hr, LLOQ 0.6 ng/mL, 300 mg/kg): 8.7 ng/mL and 70.8 ng/mL and 52.7 ng/mL and 7.2 ng/mL | Compound 1 Whole Blood Conc. (300 mg/kg RE-024-02 by PO, 0.033 hr, LLOQ 1.6 nM, 300 mg/kg): 22.9 nM and 186.2 nM and 138.7 nM and 18.9 nM | Compound 1 Whole Blood Conc. (300 mg/kg RE-024-02 by PO, 0.083 hr, LLOQ 0.6 ng/mL, 300 mg/kg): 1.6 ng/mL and BQL and 16.9 ng/mL | Compound 1 Whole Blood Conc. (300 mg/kg RE-024-02 by PO, 0.083 hr, LLOQ 1.6 nM, 300 mg/kg): 4.2 nM and BQL and 44.3 nM | Compound 1 Whole Blood Conc. (300 mg/kg RE-024-02 by PO, 0.167 hr, LLOQ 0.6 ng/mL, 300 mg/kg): 21.9 ng/mL and 24.1 ng/mL and 53.3 ng/mL and 17.7 ng/mL | Compound 1 Whole Blood Conc. (300 mg/kg RE-024-02 by PO, 0.167 hr, LLOQ 1.6 nM, 300 mg/kg): 57.6 nM and 63.3 nM and 140.1 nM and 46.5 nM | Compound 1 Whole Blood Conc. (300 mg/kg RE-024-02 by PO, 0.333 hr, LLOQ 0.6 ng/mL, 300 mg/kg): 2.4 ng/mL and 4.3 ng/mL and 3.8 ng/mL and 1.5 ng/mL | Compound 1 Whole Blood Conc. (300 mg/kg RE-024-02 by PO, 0.333 hr, LLOQ 1.6 nM, 300 mg/kg): 6.2 nM and 11.3 nM and 10 nM and 3.9 nM | Compound 1 Whole Blood Conc. (300 mg/kg RE-024-02 by PO, 0.5 hr, LLOQ 0.6 ng/mL, 300 mg/kg): 4.4 ng/mL and 4.5 ng/mL and 2.8 ng/mL | Compound 1 Whole Blood Conc. (300 mg/kg RE-024-02 by PO, 0.5 hr, LLOQ 1.6 nM, 300 mg/kg): 11.5 nM and 11.9 nM and 7.4 nM | Compound 1 Whole Blood Conc. (300 mg/kg RE-024-02 by PO, 1 hr, LLOQ 0.6 ng/mL, 300 mg/kg): BQL | Compound 1 Whole Blood Conc. (300 mg/kg RE-024-02 by PO, 1 hr, LLOQ 1.6 nM, 300 mg/kg): BQL | Compound 1 Whole Blood Conc. (300 mg/kg RE-024-02 by PO, 2 hr, LLOQ 0.6 ng/mL): BQL | Compound 1 Whole Blood Conc. (300 mg/kg RE-024-02 by PO, 2 hr, LLOQ 1.6 nM): BQL | Compound 1 Whole Blood Conc. (300 mg/kg RE-024-02 by PO, 4 hr, LLOQ 0.6 ng/mL): BQL | Compound 1 Whole Blood Conc. (300 mg/kg RE-024-02 by PO, 4 hr, LLOQ 1.6 nM): BQL | Compound 1 Whole Blood Conc. (300 mg/kg RE-024-02 by PO, 8 hr, LLOQ 0.6 ng/mL): BQL | Compound 1 Whole Blood Conc. (300 mg/kg RE-024-02 by PO, 8 hr, LLOQ 1.6 nM): BQL | Compound 1 Whole Blood Conc. (700 mg/kg RE-024-02 by PO, 0.033 hr, LLOQ 0.6 ng/mL, 700 mg/kg): 22.6 ng/mL and 66.6 ng/mL and 198 ng/mL and 119.4 ng/mL | Compound 1 Whole Blood Conc. (700 mg/kg RE-024-02 by PO, 0.033 hr, LLOQ 1.6 nM, 700 mg/kg): 59.3 nM and 175.1 nM and 520.6 nM and 313.9 nM | Compound 1 Whole Blood Conc. (700 mg/kg RE-024-02 by PO, 0.083 hr, LLOQ 0.6 ng/mL, 700 mg/kg): 165 ng/mL and 2.2 ng/mL and 624 ng/mL and 75 ng/mL | Compound 1 Whole Blood Conc. (700 mg/kg RE-024-02 by PO, 0.083 hr, LLOQ 1.6 nM, 700 mg/kg): 433.8 nM and 5.9 nM and 1640.7 nM and 197.2 nM | Compound 1 Whole Blood Conc. (700 mg/kg RE-024-02 by PO, 0.167 hr, LLOQ 0.6 ng/mL, 700 mg/kg): 636 ng/mL and 235.8 ng/mL and 165 ng/mL and 720 ng/mL | Compound 1 Whole Blood Conc. (700 mg/kg RE-024-02 by PO, 0.167 hr, LLOQ 1.6 nM, 700 mg/kg): 1672.2 nM and 620 nM and 433.8 nM and 1893.1 nM | Compound 1 Whole Blood Conc. (700 mg/kg RE-024-02 by PO, 0.333 hr, LLOQ 0.6 ng/mL, 700 mg/kg): 63.6 ng/mL | Compound 1 Whole Blood Conc. (700 mg/kg RE-024-02 by PO, 0.333 hr, LLOQ 1.6 nM, 700 mg/kg): 167.2 nM | Compound 1 Whole Blood Conc. (700 mg/kg RE-024-02 by PO, 0.5 hr, LLOQ 0.6 ng/mL, 700 mg/kg): 12 ng/mL and 41.6 ng/mL and 9.4 ng/mL and 22.9 ng/mL | Compound 1 Whole Blood Conc. (700 mg/kg RE-024-02 by PO, 0.5 hr, LLOQ 1.6 nM, 700 mg/kg): 31.6 nM and 109.3 nM and 24.8 nM and 60.1 nM | Compound 1 Whole Blood Conc. (700 mg/kg RE-024-02 by PO, 1 hr, LLOQ 0.6 ng/mL, 700 mg/kg): 48.8 ng/mL and 16 ng/mL and 6.1 ng/mL and 8.8 ng/mL | Compound 1 Whole Blood Conc. (700 mg/kg RE-024-02 by PO, 1 hr, LLOQ 1.6 nM, 700 mg/kg): 128.4 nM and 42.1 nM and 15.9 nM and 23.2 nM | Compound 1 Whole Blood Conc. (700 mg/kg RE-024-02 by PO, 2 hr, LLOQ 0.6 ng/mL, 700 mg/kg): 5.5 ng/mL and 4 ng/mL and 5.6 ng/mL and 10.2 ng/mL | Compound 1 Whole Blood Conc. (700 mg/kg RE-024-02 by PO, 2 hr, LLOQ 1.6 nM, 700 mg/kg): 14.6 nM and 10.4 nM and 14.8 nM and 26.8 nM
